In article PMC3357532, “Intracellular Loop 2 Peptides of the Human 5HT1a Receptor are Differential Activators of Gi” (International Journal of Peptides, 2012):
Where two headings read alike, the source gives them in different places. Where no end group is shown, it is not given here.

Assays:
[1] = tested on: CHO cells expressing the human 5HT1aR; experiment: Forskolin-stimulated cAMP production (EIA); format: cell-based; settings: for [cAMP] (SEM), relative to FSK-stimulated control: 30 uM FSK, 100 uM IBMX, 20 min 37°C, control = 100; for FSK stimulated cAMP (%): Figure 5, IBMX, FSK control = 100
Procedure: CHO cells were cultured to confluency in 12- or 24-well plates. Medium was aspirated, and the cells were rinsed twice in warm, serum-free F-12 medium. Cells were incubated for 20 min. at 37°C in 0.5 mls of serum-free F-12 medium containing 100 uM isobutylmethylxanthine (IBMX) and the following substances (final concs.) alone or in combination (see Figures 3 and 5): 30 μM forskolin (FSK; for all treatments); 1 μM 5-HT; peptide concentrations as noted in figure legends. Reactions were stopped by aspiration of medium and addition of 0.5 mL of 100 mM HCl. After 10 min., well contents were removed and centrifuged at 4000 rpm. Supernatants were diluted in 100 mM HCl, and cAMP was quantified directly in a microplate format by enzyme immunoassay (EIA) with a kit from Assay Designs (Ann Arbor). Triplicate-independent samples were assayed.

[2] = tested on: Gi in H5-HT1aR membranes from transfected CHO cells; experiment: [35S]GTPγS incorporation into Gi; format: biochemical, human; settings: for GTP Incorp. (SEM), γ-[35S]-GTP into Gi, percent of control: peptide 30 uM (Figure 2), basal control = 100, 30 min 30°C
Procedure: H5-HT1aR membranes from transfected CHO cells were incubated with 5-HT (0.1 μM) and/or peptide concentrations as noted in figure legends (see Figures 2 and 4) and the following incubation mixture: 20 mM HEPES buffer, pH 7.4, 5 mM MgCl2, 1 mM EDTA, 1 mM DTT, 100 mM NaCl, 100 uM GDP, 10 μM pargyline, 0.2 mM ascorbate, and 0.1 nM [35S]GTPγS [53, 58]. Mixtures were incubated for 30 min. at 30°C, and were terminated by dilution in cold buffer. The mixture was filtered on GF/C filters, rinsed twice in buffer, dried and counted by liquid scintillation. All values reported in are for specific binding (total nonspecific) of triplicates. Nonspecific binding was determined in the presence of cold γ-S-GTP (10 uM). Negative control is the above mixture minus test drug or 5HT. Positive control contains 5HT.

[3] = tested on: CHO cells expressing the human 5HT1aR; settings: cited from earlier work
Description: (§1) Table 2 ic2 Peptide mimic effect on [3H]8-OH-DPAT binding. All binding inhibition values are percent of control agonist (ag.) bound. The upper portion of the table is for peptides nearer the C-terminus, including P11 from Thiagaraj et al., 2007 [53]. These peptides decreased the specific high affinity binding of 5HT1aR agonist [^3H]-8-OH-DPAT by 50% at the given concentration. The lower portion | column: [cAMP] (SEM) || Table 3 ic3 Peptide mimic coupling and signal transduction data. Summary of data generated for all ic3 experiments with P12 and P13. P1 is included as a reference, from Hayataka et al., 1998 [49]. Nominal values for control agonist binding were 400 fmoles/mg protein. | column: % Inhibition of FSK-stimulated cAMP

H5-HT1aR [4] = biological target: T1, H5-HT1aR (Homo sapiens, UniProt P08908); settings: cited from earlier work
T1 construct: expressed in transfected cells; host or cells: CHO cells (Chinese hamster ovary), crude membranes
T1 sequence (P08908 1-422): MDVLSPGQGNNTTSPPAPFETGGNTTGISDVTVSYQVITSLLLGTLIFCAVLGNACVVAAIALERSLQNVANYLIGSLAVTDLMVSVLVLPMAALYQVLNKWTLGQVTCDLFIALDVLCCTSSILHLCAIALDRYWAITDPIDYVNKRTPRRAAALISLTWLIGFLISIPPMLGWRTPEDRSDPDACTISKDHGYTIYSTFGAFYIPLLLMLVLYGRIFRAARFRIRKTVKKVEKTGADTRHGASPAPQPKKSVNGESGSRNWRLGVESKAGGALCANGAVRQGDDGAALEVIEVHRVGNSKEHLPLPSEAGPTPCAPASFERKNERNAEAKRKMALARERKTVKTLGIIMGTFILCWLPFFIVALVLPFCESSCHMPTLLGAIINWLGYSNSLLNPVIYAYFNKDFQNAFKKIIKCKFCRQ
Description: as §1, with “Conc. (uM); % cont. ag, bound,” for “[cAMP]”, “Agonist (%) inhibition” for “% Inhibition of FSK-stimulated cAMP”

[5] = tested on: Gi in H5-HT1aR membranes from transfected CHO cells; settings: cited from earlier work
Description: as §1, with “GTP Incorp.” for “[cAMP]”, “[35S]-γ-S-GTP incorporation% above conro” for “% Inhibition of FSK-stimulated cAMP”

H5-HT1aR [6] = biological target: T1, H5-HT1aR; experiment: Inhibition of agonist [3H]8-OH-DPAT binding (measure of receptor-G-protein coupling)
Procedure: Cells were trypsinized and centrifuged at low speed in ice-cold medium. The pellet was resuspended in ice-cold Earle's Balanced Salt Solution followed by centrifugation. Cells were resuspended in 10 mL of ice-cold binding buffer (50 mM Tris, 4 mM CaCl2, 10 μM pargyline, and pH 7.4), homogenized with Teflon-glass, and centrifuged for 450,000 g-min. at 4°C. For a crude membrane preparation, the pellet was resuspended in 30 mL of ice-cold binding buffer, homogenized on Teflon-glass and then by Polytron (setting 4) for 5 seconds, and stored on ice and assayed within the next 1.5 hours.
Binding of the agonist [3H]8-OH-DPAT ([3H]8-hydroxy-2-(di-n-propylamino)tetralin) to H5-HT1aR followed well-characterized protocols. Radioligands were purchased from New England Nuclear (NEN), Boston, MA, and 1 mL reaction mixtures, in triplicate, were incubated for 30 min. in a 30°C shaker. The 1 mL mixture was 700 μL of receptor preparation; 100 μL of binding buffer (for total binding) or 10 μM 5-HT (for nonspecific binding), 100 μL of the tritiated agent (concentration of 0.5 nM [3H] 8-OH-DPAT), and 100 μL of peptide or binding buffer in the case of controls.
Reactions were stopped by addition of 4 mL of ice-cold 50 mM Tris buffer, pH 7.4, and vacuum filtration on glass fiber filters (Whatman GF/B). Filters were rinsed twice in 5 mL of ice-cold Tris buffer, dried, and counted in 5 mL of Ecoscint (National Diagnostics) liquid scintillation fluid in a Beckman LS 6500. Homogenates were assayed for protein to maintain a nominal value of 50 μg protein per filter. All tubes were run in triplicate.

[7] = biological target: Gi (G protein coupled to the human 5HT1a receptor in CHO cells) (Chinese hamster (endogenous in CHO))
[8] = biological target: Gi (G protein coupled to the human 5HT1a receptor in CHO cells) (Chinese hamster (endogenous in CHO)); remark: listed apart in the source
[9] = CHO H5-HT1aR membranes, 0.5 nM [3H]8-OH-DPAT, 30 min 30°C, shallow curves, read-out: Conc. (uM) at which specific high affinity [3H]8-OH-DPAT binding is decreased by 50% (IC50)

With NCCc1c[nH]c2ccc(O)cc12 [Peptide 5HT, 5-hydroxytryptamine, reference compound] the “[cAMP] (SEM), relative to FSK-stimulated control” value ([1]; 1 uM 5-HT) was 21 (4) % and the “FSK stimulated cAMP (%)” value ([1]; 5HT alone (1 uM per method)) was 24 ± 1%.

With “DPIDYVNKRT [Peptide P25, ic2 loop peptide mimic of H5HT1aR]” the “[cAMP] (SEM), relative to FSK-stimulated control” value ([1]; peptide 30 uM (Figure 3)) was 64 (3) % and the “GTP Incorp. (SEM), γ-[35S]-GTP into Gi, percent of control” value (from here on “GTP Incorp. (SEM) … percent of control”) [2] was 126 (10) %.

For “IALDRYWAITD [Peptide P11, ic2 N-terminal (TM3/ic2) peptide mimic of H5HT1aR from a previous study, Thiagaraj et al., 2007]”, the “[cAMP] (SEM), relative to FSK-stimulated control” value ([3]; peptide 30 uM (Figure 3), 30 uM FSK, IBMX, ref Thiagaraj et al., 2007 [53], SEM) is listed as 87 (8) %, the IC50 (H5-HT1aR [4]; CHO H5-HT1aR membranes, ref Thiagaraj et al., 2007 [53], read-out: Conc. (uM) at which specific high affinity [3H]8-OH-DPAT binding is decreased by 50% (IC50)) is listed as 7 µM and the “GTP Incorp. (SEM) … percent of control” value ([5]; peptide 30 uM (Figure 2), ref Thiagaraj et al., 2007 [53], SEM) is listed as 100 (3) %.

For “IDYVNKRTPR [Peptide P26, ic2 loop peptide mimic of H5HT1aR]”, the “[cAMP] (SEM), relative to FSK-stimulated control” value ([1]; peptide 30 uM (Figure 3)) was 100 (5) % and the “GTP Incorp. (SEM) … percent of control” value [2] was 111 (9) %.

For IFRAARFRIRKTVKK [P1*], the inhibition ([3]; peptide 10 uM, ref Hayataka et al., 1998 [49], read-out: % Inhibition of FSK-stimulated cAMP) is given as 10%, the IC50 (H5-HT1aR [4]; [3H]8-OH-DPAT, ref Hayataka et al., 1998 [49], read-out: Agonist (%) inhibition: concentration giving 50% (IC50)) is given as 3 µM and the inhibition (H5-HT1aR [4]; peptide 3 uM, ref Hayataka et al., 1998 [49], read-out: Agonist (%) inhibition) is given as 50%. For the same molecule, the “[35S]-γ-S-GTP incorporation% above conro” value ([5]; peptide 1 uM, ref Hayataka et al., 1998 [49]) was 30%.

In the case of ITDPIDYVNK [Peptide P24], the “[cAMP] (SEM), relative to FSK-stimulated control” value ([1]; peptide 30 uM (Figure 3)) is reported as 45 (7) % and the “GTP Incorp. (SEM) … percent of control” value [2] is reported as 146 (17) %.

For “KTVKKVEKTG [Peptide P12, ic3 peptide mimic of H5HT1aR]”, the “Change in intracellular cAMP concentration (in words)” value ([1]; FSK-stimulated, peptide 30 uM (Figure 5)) was “not altered”, the “FSK stimulated cAMP (%)” value ([1]; peptide alone 30 uM) was 100 ± 6% and the inhibition ([1]; peptide 30 uM, read-out: % Inhibition of FSK-stimulated cAMP) was 0%. The “[35S]-γ-S-GTP incorporation% above conro” value ([2]; peptide 30 uM) was 24% and the inhibition (H5-HT1aR [6]; peptide 30 uM, maximum inhibition possible with the highest soluble concentration) was 28%.

With LDRYWAITDP [Peptide P21] the IC50 (H5-HT1aR [6]; [9]) was 15 µM.

Molecule RYWAITDPID [Peptide P22] has an IC50 (H5-HT1aR [6]; [9]) of 16 µM.

In the case of VKKVEKTGAD [Peptide P13], the IC50 (H5-HT1aR [6]; [3H]8-OH-DPAT, if 50% is listed, the concentration is the IC50, read-out: Agonist (%) inhibition: concentration giving 50% (IC50)) is reported as 15 µM and the inhibition (H5-HT1aR [6]; peptide 15 uM) is reported as 50%.

WAITDPIDYV [Peptide P23] gave an IC50 (H5-HT1aR [6]; [9]) of 30 µM.

With “YVNKRTPRPR [Peptide P27, ic2 loop peptide mimic of H5HT1aR, C-terminal end]” the “[cAMP] (SEM), relative to FSK-stimulated control” value ([1]; peptide 30 uM (Figure 3)) was 132 (6) % and the “GTP Incorp. (SEM) … percent of control” value [2] was 130 (7) %.

In the case of RYWAITDPID [P22, ic2 loop peptide mimic of the human 5HT1a receptor], the IC50 of agonist inhibition: peptide concentration at which specific [3H]8-OH-DPAT binding to H5-HT1aR in CHO membranes falls to about 50% of control (uncoupling of receptor from G protein) [7] is reported as 16 µM.

In the case of LDRYWAITDP [P21, ic2 loop peptide mimic of the human 5HT1a receptor], the IC50 of agonist inhibition: peptide concentration at which specific [3H]8-OH-DPAT binding to H5-HT1aR in CHO membranes falls to about 50% of control (uncoupling of receptor from G protein) [7] is reported as 15 µM.

With WAITDPIDYV [P23, ic2 loop peptide mimic of the human 5HT1a receptor] the IC50 of agonist inhibition: peptide concentration at which specific [3H]8-OH-DPAT binding to H5-HT1aR in CHO membranes falls to about 50% of control (uncoupling of receptor from G protein) [7] was 30 µM.

VKKVEKTGAD [P13, ic3 loop peptide mimic of the human 5HT1a receptor] gave a % inhibition of FSK-stimulated cAMP at 30 uM peptide, CHO cells expressing H5HT1aR (negative: cAMP increased) [8] of -24 % inhibition, an IC50 of agonist inhibition: peptide concentration giving 50% inhibition of [3H]8-OH-DPAT binding to H5-HT1aR in CHO membranes (uncoupling of receptor from G protein) [8] of 15 µM and a [35S]-γ-S-GTP incorporation into Gi, % above control, at 30 uM peptide, CHO H5HT1aR membranes (% above control) [8] of 12.

Work on KTVKKVEKTG [P12, ic3 loop peptide mimic of the human 5HT1a receptor] yielded a % inhibition of FSK-stimulated cAMP at 30 uM peptide, CHO cells expressing H5HT1aR [8] of -0 % inhibition, a [35S]-γ-S-GTP incorporation into Gi, % above control, at 30 uM peptide, CHO H5HT1aR membranes (% above control) [8] of 24 and an agonist ([3H]8-OH-DPAT) % inhibition at 30 uM peptide, H5-HT1aR in CHO membranes (maximum inhibition possible with the highest soluble concentration; uncoupling of receptor from G protein) [8] of 28 % inhibition.
